Results on four molecules are retold here after patent US8691849B2, “3-azabicyclo[3.1.0]hexyl derivatives as modulators of metabotropic glutamate receptors” (Janssen Pharmaceuticals, Inc., priority 2008, dated 2014).

Each structure is given as a SMILES string.

One data set deals with T1, human mGluR2 receptor (Homo sapiens, UniProt Q14416).
T1 construct: expressed in transfected cells; host or cells: CHO cells
Description: [35S]GTPγS binding assay (PAM assay), membranes from CHO cells transfected with human mGluR2. Conditions: in presence of glutamate at predetermined EC25 concentration; averages of duplicate values of 11-concentration response curves; read-out: GTPγS - hR2 PAM pEC50 (converted). Format: biochemical. The text has this: The compounds provided in the present invention are positive allosteric modulators of mGluR2. These compounds appear to potentiate glutamate responses by binding to an allosteric site other than the glutamate binding site. The response of mGluR2 to a concentration of glutamate is increased when compounds of Formula (I) are present. Compounds of Formula (I) are expected to have their effect substantially at mGluR2 by virtue of their ability to enhance the function of the receptor. The behaviour of positive allosteric modulators tested at mGluR2 using the [^35S]GTPγS binding assay method described below and which is suitable for the identification of such compounds, and more particularly the compounds according to Formula (I), are shown in Table 2.
The [^35S]GTPγS binding assay is a functional membrane-based assay used to study G-protein coupled receptor (GPCR) function whereby incorporation of a non-hydrolysable form of GTP, [^35S]GTPγS (guanosine 5′-triphosphate, labelled with […] ^35S), is measured. The G-protein α subunit catalyzes the exchange of guanosine 5′-diphosphate (GDP) by guanosine triphosphate (GTP) and on activation of the GPCR by an agonist, [^35S]GTPγS, becomes incorporated and cannot be cleaved to continue the exchange cycle (Harper (1998) Current Protocols in Pharmacology 2.6.1-10, John Wiley & Sons, Inc.). […] Here we describe the use of the [^35S]GTPγS binding assay using membranes from cells transfected with the human mGluR2 receptor and adapted from Schaffhauser et al ((2003) Molecular Pharmacology 4:798-810) for the detection of the positive allosteric modulation (PAM) properties of the compounds of this invention.
CHO-cells were cultured to pre-confluence and stimulated with 5 mM butyrate for 24 hours, prior to washing in PBS, and then collected by scraping in homogenisation buffer (50 mM Tris-HCl buffer, pH 7.4, 4° C.). […] Protein concentration was determined by the Bradford method (Bio-Rad, USA) with bovine serum albumin as standard.
Measurement of mGluR2 positive allosteric modulatory activity of test compounds in membranes containing human mGluR2 was performed using frozen membranes that were thawed and briefly homogenized prior to pre-incubation in 96-well microplates (15 μg/assay well, 30 minutes, 30° C.) in assay buffer (50 mM HEPES pH 7.4, 100 mM NaCl, 3 mM MgCl2, 50 μM GDP, 10 μg/ml saponin,) with increasing concentrations of positive allosteric modulator (from 0.3 nM to 50 μM) and either a minimal pre-determined concentration of glutamate (PAM assay), or no added glutamate. […] Filters were then air-dried, and 40 μl of liquid scintillation cocktail (Microscint-O) was added to each well, and membrane-bound [^35S]GTPγS was measured in a 96-well scintillation plate reader (Top-Count, Perkin-Elmer, USA). […]
(In general: GTPγS resists hydrolysis and so accumulates on activated G proteins.)

T1 sequence (Q14416 19-872): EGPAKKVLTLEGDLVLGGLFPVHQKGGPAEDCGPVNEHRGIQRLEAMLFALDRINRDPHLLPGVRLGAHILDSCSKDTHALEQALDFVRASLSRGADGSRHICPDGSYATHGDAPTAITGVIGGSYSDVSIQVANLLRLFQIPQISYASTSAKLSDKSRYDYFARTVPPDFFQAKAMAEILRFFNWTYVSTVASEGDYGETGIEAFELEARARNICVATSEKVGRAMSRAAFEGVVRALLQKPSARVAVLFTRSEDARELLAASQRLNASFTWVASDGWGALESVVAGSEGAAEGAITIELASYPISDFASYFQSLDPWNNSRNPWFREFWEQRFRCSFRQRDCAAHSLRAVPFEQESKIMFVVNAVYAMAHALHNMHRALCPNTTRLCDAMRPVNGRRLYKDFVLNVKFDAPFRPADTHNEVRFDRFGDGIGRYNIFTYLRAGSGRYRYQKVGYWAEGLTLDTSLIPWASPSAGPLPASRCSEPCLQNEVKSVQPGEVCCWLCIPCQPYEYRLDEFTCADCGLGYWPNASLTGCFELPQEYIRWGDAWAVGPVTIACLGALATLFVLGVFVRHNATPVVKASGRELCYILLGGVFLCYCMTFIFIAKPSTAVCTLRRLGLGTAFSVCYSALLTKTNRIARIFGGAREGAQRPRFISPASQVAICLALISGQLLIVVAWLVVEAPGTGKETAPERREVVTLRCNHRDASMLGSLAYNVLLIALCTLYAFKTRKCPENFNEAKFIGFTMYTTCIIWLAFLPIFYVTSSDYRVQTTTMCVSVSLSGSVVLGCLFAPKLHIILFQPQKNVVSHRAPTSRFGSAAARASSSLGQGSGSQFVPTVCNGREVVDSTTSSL

Turning to `O=c1c(Cl)c(N2CC3[C@H](C2)[C@H]3c2ccccc2)ccn1CC1CC1` (stereo partly drawn) [Compound E1, (2aα,3α,3aα)-3-Chloro-1-cyclopropylmethyl-4-(6-phenyl-3-aza-bicyclo[3.1.0]hex-3-yl)-1H-pyridin-2-one], the melting point amounted to 172.2 °C. Further, the EC50 at human mGluR2 receptor was 275 nM.

For `CCCCn1ccc(N2C[C@@H]3[C@@H](COc4cc(Cl)ccc4Cl)[C@@H]3C2)c(Cl)c1=O` [Compound E2], the EC50 on human mGluR2 receptor was 123 nM.

Turning to `CCCCn1ccc(N2C[C@@H]3[C@H](COc4cc(Cl)ccc4Cl)[C@@H]3C2)c(Cl)c1=O` [Compound E3], the EC50 on human mGluR2 receptor is 126 nM.

`CCCCn1ccc(N2C[C@@H]3[C@H](C2)[C@H]3c2ccccc2)c(Cl)c1=O` [Compound E4, (2aα,3α,3aα)-1-Butyl-3-chloro-4-(6-phenyl-3-aza-bicyclo[3.1.0]hex-3-yl)-1H-pyridin-2-one] yielded a melting point of 185.9 °C. For the same molecule, on human mGluR2 receptor, the EC50 was 89.1 nM.

Broadly, the melting point is the temperature, or range, at which the solid turns liquid.
